According to patent publication US7006929B2, “Signal detecting sensor provided with multi-electrode” (Matsushita Electric Industrial Co., Ltd., priority 2001, dated 2006):

Tested on: artificially reconstructed neural cell network (rat cerebral cortex neurons)
Experiment: stimulus transmission in reconstructed neural cell network on 64-electrode sensor
Format: cell-based
Conditions: 40 μM, treated for 10 minutes; constant voltage stimulus at one electrode (row 5, column 5)
Experimental: Neurons were prepared from the cerebral cortex of gestation day 17 rat embryos and were suspended in Dulbecco's modified medium, and were dispensed into each container of a sensor comprising 64 electrodes and containers as shown in FIG. 3 at a concentration of 5×10^5 cells/ml, followed by culturing for two weeks. As a result, an artificial neural cell network was reconstructed on the sensor. The sensor containing the reconstructed neural cell network was used as follows. An apparatus having the configuration of FIG. […] The transmission of the stimulus was measured by detecting cell potentials at the remaining 63 electrodes. […] A neural cell network reconstructed as in Examples 1 and 2 was treated with 40 μM DNQX (6,7-Dinitroquinoxaline-2,3(1H,4H)-dione) for 10 minutes. As in Example 2, a constant voltage stimulus was applied to a cell on a sensor. The transmission of the stimulus was measured by detecting cell potentials at the remaining 63 electrodes.

Compound: O=c1[nH]c2cc([N+](=O)[O-])c([N+](=O)[O-])cc2[nH]c1=O [DNQX, 6,7-Dinitroquinoxaline-2,3(1H,4H)-dione]
- response (cell potentials) at the remaining 63 electrodes to constant voltage stimulus: a response was not observed at any of the electrodes
